Laboratory results published in patent publication US20250275993A1, “GLYCOSYLATION INHIBITORS AS THERAPEUTICS FOR STROKE” (The Regents of the University of California, priority 2022, published 2025).
“Also recorded” adds a separate entry of the source.

What was measured:
[1] = system: ERK, AKT, mTOR, CREB, ACC and eNOS; test: Western blot of signal transduction pathways in BCECs; assay type: cell-based, bovine; details: 40 μM
Procedure: Cells were allowed to reach-80% confluency in 12-well plates. […] At various time points, plates were taken out of the incubator and kept on ice. […] Lysates were collected and mixed with 4× Bolt LDS Sample Buffer (Novex, Carlsbad, CA) in the presence of Halt protease inhibitors and phosphatase inhibitor cocktail (ThermoFisher scientific, #NP0007). […] HUVECs (passage 6-8) were plated in EBM-2 basal medium (Lonza) with 0.2% FBS. Following overnight culture, cells were serum-starved in EBM-2 medium for 4 hrs prior to treatment with 50 ng/ml of VEGF165 or vehicle controls for various lengths. Equal amounts of protein lysates were analyzed by SDS-PAGE and blotted with the indicated antibodies. Proteins were transferred using Tris-Glycine buffer with 20% Methanol (Proteonomics grade) (Apex BioResearch Products). Membranes were first incubated with 5% milk in TBST, pH 7.6 (TEKnova, Hollister, CA), followed by blotting with primary and secondary antibodies. ECL anti-rabbit IgG, horseradish peroxidase linked whole antibody from donkey or sheep anti-mouse were obtained from GE Healthcare (UK limited). SuperSignal West Dura Extended Duration substrate was from ThermoFisher Scientific. In some cases, the same PVDF membranes were stripped by 8-min incubation in the Restore Plus Western Blot Stripping Buffer (ThermoFisher Scientific) to show total specific protein expression, followed by second stripping for (3-actin expression.

Bip, CHOP, ATF-6 = test: Western blot of UPR responsive proteins in BCECs; assay type: cell-based, bovine; details: for restoration of ATF-6 expression: ManN at 400 μM
[2] = system: bovine choroidal microvascular endothelial cells (BCEC); test: BCEC proliferation assay (AlamarBlue / crystal violet); assay type: cell-based; details: for stimulation of BCEC proliferation by other hexosamines and structurally related molecules: with or without VEGF, tested alongside ManN
Procedure: The effect of ManN on EC proliferation was assessed.
AlamarBlue detects mitochondria activity as an indication of cell viability which correlates with cell number at certain ranges.
Proliferation assays with BCECs and BRECs were performed. Log-phase growing BCECs or BRECs (passage <10) were trypsinized, re-suspended and seeded in 96-well plates (no coating) in low-glucose DMEM supplemented with 10% bovine calf serum, 2 mM glutamine, and antibiotics (growth medium), at a density of 1200-1500 cells per well in 200 μl volume. All reagents were added at the indicated final concentrations. After 3-6 days, cells were incubated with AlamarBlue for 4 hrs. Fluorescence was measured at 530 nm excitation wavelength and 590 nm emission wavelength. The experiments were repeated at least three times. […] 20% methanol or 0.05% DMSO served as negative controls. […] Human RMVECs and human adult DMVECs were split into Gelatin-coated 96 wells (2000 cells per well) in low glucose DMEM containing 10% FBS. 1200 cells/well was set up for proliferation assay in low glucose media containing 0.5% FBS. Data was collected at day 4 or 5. HUVEC (p7-10) were grown on gelatin-coated plate until it reached 70-80% confluency.
On the day of the assay, cells were dissociated with 0.05% trypsin, which was neutralized with 0.5% FBS-containing EBM. Cells were briefly spun and then re-suspended in 0.5% FBS-media. Cells were counted and plated in 96-well, 1000 cells/well. Triplicate wells were used for each treatment. Data were collected at day 3, and then cells were fixed in 4% paraformaldehyde for 15 min before adding crystal violet. Cell-covered areas were quantified after taking pictures by Image J software.

retinal vasculature = test: Retinal neovascularization after intravitreal injection; assay type: in vivo, mouse; details: 500 ng ManN or Kif, 200 ng bFGF intravitreally; after seven days
Procedure: The effect of ManN and Kif on inducing retinal neovascularization was assessed. The findings in cultured eye-derived EC were extended to a suitable in vivo model system. The mouse retina has been used extensively over the past decades to study both physiological and pathological angiogenesis. To obtain a detailed description of the retinal vasculature, images from retinal flat mounts were processed for vascular area fraction (ratio of area covered by blood vessels to total retinal area). Using this model, the effects of ManN in retinal neovascularization were assessed. Kif was also tested in this model because it is a water-soluble inhibitor and its mechanism of glycosylation inhibition is well established. In addition, it shares with ManN the ability to activate ERK, AKT and stress pathways in BCEC (FIG. 7E).
Assessment of retinal angiogenesis following intravitreal administration was done. Briefly, 6-8 weeks old C57BL/6 male mice were randomly allocated to different groups and anesthetized with ketamine/Xylazine cocktail. The indicated amounts of ManN, Kif or bFGF (R&D systems, AF-233-NA) in 1 μl of PBS and PBS vehicle control were injected intravitreally with a 33-gauge Hamilton syringe. Seven days after injection, animals were euthanized. Eyes were then enucleated and fixed in 4% paraformaldehyde (PFA) for 30 mins. Retinas were separated and stained with anti-CD31 immunofluorescence (IF) to evidence the vasculature. Evaluations were performed by an investigator blinded to the treatment. For CD31 IF, rat anti-mouse antibody (BD Biosciences, CAT #550274) was diluted 1:100 and incubated overnight at 4° C. After 4-hour incubation with the Alexa Fluor-488-conjugated anti-rat antibody (Life Technologies, A11006), whole mounts were imaged via the 488 nm channel using AIR Confocal STORM super-resolution system (Nikon). Quantification of vascular density in choroids and retina was carried out by Image J. Each experiment was repeated three times with similar results, and each treatment group consists of 5 individual samples.

[3] = system: BCEC confluent monolayers; test: BCEC scratch assay; assay type: cell-based, bovine; details: over 48 hours relative to control
Procedure: BCECs (passage 6-10) and HUVEC (passage 6-8) were used in this assay. Cells were grown until about 80% confluency in 6-well plates, washed twice with PBS and then starved in serum-free DMEM (low Glucose, Hyclone) for 5 hrs before making a “scratch” using 1 ml tip. Cell monolayers were briefly washed once with serum-free media, followed by various treatments in media containing 1% FBS. 48 hrs later, the assay was stopped by adding 2 ml 4% paraformaldehyde. 20 min later, fixed cells were stained with 1 ml Crystal Violet (Sigma). Plates were washed gently under the running tap water and air-dried before taking pictures. Images were acquired by ZEISS Discovery […] microscopy equipped with […] camera. Quantification of wound closure was done using AxioVision LE Rel.4.4 software. Six images were taken for each sample and six measurements (in pixel) were made on each image using AxioVision LE Re1.4.4 software.

ERK and AKT = test: Western blot of ERK and AKT activation in HUVEC and hDMVECs; assay type: cell-based, human; details: 40 μM
Procedure: Cells were allowed to reach-80% confluency in 12-well plates. […] At various time points, plates were taken out of the incubator and kept on ice. Cell monolayers were first washed once with ice-cold PBS before lysis with 250 μI of Pierce RIPA buffer (ThermoFisher Scientific, Rockford, IL) or use 50 mM Tris-HCl (pH 7.6), 150 mM NaCl, 10% Glycerol, 1% NP-40 containing protease/Phosphatase inhibitor cocktail (100×) (Cell signaling, #5872). Lysates were collected and mixed with 4× Bolt LDS Sample Buffer (Novex, Carlsbad, CA) in the presence of Halt protease inhibitors and phosphatase inhibitor cocktail (ThermoFisher scientific, #NP0007). The samples were subjected to SDS-PAGE (Bolt 4-12% Bis-Tris Plus, Invitrogen) using Bolt MES SDS running buffer or NuPAGE 3-8% Tris-Acetate gel using Tris-Acetate SDS running buffer (Novex). HUVECs (passage 6-8) were plated in EBM-2 basal medium (Lonza) with 0.2% FBS. Following overnight culture, cells were serum-starved in EBM-2 medium for 4 hrs prior to treatment with 50 ng/ml of VEGF165 or vehicle controls for various lengths. Equal amounts of protein lysates were analyzed by SDS-PAGE and blotted with the indicated antibodies. Proteins were transferred using Tris-Glycine buffer with 20% Methanol (Proteonomics grade) (Apex BioResearch Products). […]

JNK/c-jun = test: Western blot of JNK pathway activation in BCECs; assay type: cell-based, bovine; details: 40 μM; BCECs; FIG. 7E
Procedure: Cells were allowed to reach-80% confluency in 12-well plates. […] At various time points, plates were taken out of the incubator and kept on ice. Cell monolayers were first washed once with ice-cold PBS before lysis with 250 μI of Pierce RIPA buffer (ThermoFisher Scientific, Rockford, IL) or use 50 mM Tris-HCl (pH 7.6), 150 mM NaCl, 10% Glycerol, 1% NP-40 containing protease/Phosphatase inhibitor cocktail (100×) (Cell signaling, #5872). Lysates were collected and mixed with 4× Bolt LDS Sample Buffer (Novex, Carlsbad, CA) in the presence of Halt protease inhibitors and phosphatase inhibitor cocktail (ThermoFisher scientific, #NP0007). The samples were subjected to SDS-PAGE (Bolt 4-12% Bis-Tris Plus, Invitrogen) using Bolt MES SDS running buffer or NuPAGE 3-8% Tris-Acetate gel using Tris-Acetate SDS running buffer (Novex). HUVECs (passage 6-8) were plated in EBM-2 basal medium (Lonza) with 0.2% FBS. Following overnight culture, cells were serum-starved in EBM-2 medium for 4 hrs prior to treatment with 50 ng/ml of VEGF165 or vehicle controls for various lengths. Equal amounts of protein lysates were analyzed by SDS-PAGE and blotted with the indicated antibodies. Proteins were transferred using Tris-Glycine buffer with 20% Methanol (Proteonomics grade) (Apex BioResearch Products). Membranes were first incubated with 5% milk in TBST, pH 7.6 (TEKnova, Hollister, CA), followed by blotting with primary and secondary antibodies. ECL anti-rabbit IgG, horseradish peroxidase linked whole antibody from donkey or sheep anti-mouse were obtained from GE Healthcare (UK limited). SuperSignal West Dura Extended Duration substrate was from ThermoFisher Scientific. In some cases, the same PVDF membranes were stripped by 8-min incubation in the Restore Plus Western Blot Stripping Buffer (ThermoFisher Scientific) to show total specific protein expression, followed by second stripping for (3-actin expression.

For `CC(=O)N[C@@H]1C(O)O[C@H](CO)[C@@H](O)[C@@H]1O` (stereo partly drawn) [ManNAc, N-Acetyl-D-Mannosamine, reference compound], the “activation of ERK, AKT, mTOR, CREB, ACC and eNOS by other sugars” value ([1]; BCECs, FIG. 2C) was “induced a similar activation”.
With `O=C(O)CCCc1ccccc1` [4-PBA, 4-phenylbutyric acid] the “prevention of CHOP induction by ManN” value (Bip, CHOP, ATF-6; 2 mM 4-PBA or 500 µM TUDCA, ManN at 400 μM and 5 mM) was “could prevent the induction of CHOP expression”, the “restoration of ATF-6 expression” value (Bip, CHOP, ATF-6) was “restore the expression of ATF-6” and the “reversal of ManN activity on BCEC proliferation by chaperone” value ([2]; pre-treating with 1 mM 4-PBA for 4 hours, absence or presence of VEGF) was “effectively reverse the bell-shaped activity of ManN on BCEC proliferation”. For the same compound, the “effect of chaperone on ManN/VEGF additivity and ManN toxicity” value ([2]; pre-treatment with 1 mM 4-PBA for 8 hours, FIG. 5D) was “abrogated additive effects of 40 μM ManN and 5 ng/ml VEGF and protected cells from toxic effect induced by 2 mM ManN”.
In the case of “bFGF: bFGF purchased from R&D systems, positive control”, the “increase in density of retinal vessels vs PBS group” value (retinal vasculature) is reported as “about 35%”.
With `Cl.NCC(=O)[C@@H](O)[C@H](O)[C@H](O)CO` [D-isoglucosamine, 1-Amino-1-deoxy-D-Fructose hydrochloride] the “stimulation of BCEC proliferation by other hexosamines and structurally related molecules” value (from here on “stimulation of BCEC proliferation”) [2] was “None of these molecules stimulated BCEC proliferation”.
In the case of `CC(=O)N[C@H]1[C@H]([C@H](O)[C@H](O)CO)OC(O)(C(=O)O)C[C@@H]1O` (stereo partly shown) [N-Acetylneuraminic acid], the “stimulation of BCEC proliferation” value [2] is reported as “None of these molecules stimulated BCEC proliferation”.
With `CNC[C@H](O)[C@@H](O)[C@H](O)[C@H](O)CO` [meglumine, Meglumine] the “stimulation of BCEC proliferation” value [2] was “None of these molecules stimulated BCEC proliferation”.
With `C[C@@H](O[C@H]1[C@H](O)[C@@H](CO)OC(O)[C@@H]1N)C(=O)O` (stereo partly shown) [muramic acid, Muramic acid] the “stimulation of BCEC proliferation” value [2] was “None of these molecules stimulated BCEC proliferation”.
In the case of `C[C@H](CCC(=O)NCCS(=O)(=O)O)[C@H]1CC[C@H]2[C@@H]3[C@@H](O)C[C@@H]4C[C@H](O)CC[C@]4(C)[C@H]3CC[C@]12C` [TUDCA, tauroursodeoxycholic acid], the “restoration of ATF-6 expression” value (Bip, CHOP, ATF-6) is reported as “much weaker”.
`O[C@H]1[C@H](O)[C@@H](O)CN2CC[C@H](O)[C@H]12` [Cas, Castanospermine] was tested, and the “gap closing in BCEC scratch assay by glycosylation inhibitors” value [3] was “significant activity”, the “Bip expression by glycosylation inhibitors” value (Bip, CHOP, ATF-6; media without growth factors for 24 hours) was “dose-dependent induction of Bip expression” and the “BCEC proliferation by glycosylation inhibitors” value ([2]; 0.01 to 100 μM, 3 days, absence or presence of 5 ng/ml VEGF) was “stimulated in a dose-dependent fashion”. The “activation of ERK and AKT in human ECs by glycosylation inhibitors” value (ERK and AKT) was “less obvious”, the “activation of the JNK pathway by glycosylation inhibitors” value (JNK/c-jun) was “able to activate the JNK pathway” and the “activation of ERK and AKT in BCECs by glycosylation inhibitors” value ([1]; FIG. 7E) was “less obvious; also recorded: did not activate ERK”.
In the case of `N[C@H]1C(O)O[C@H](CO)[C@H](O)[C@@H]1O` (stereo partly drawn) [galactosamine, D-(+)-Galactosamine], the “stimulation of BCEC proliferation” value [2] is reported as “none of these hexosamines had significant stimulatory effects”.
With `N[C@H]1C(O)O[C@H](CO)[C@@H](O)[C@@H]1O` (stereo partly drawn) [glucosamine, D-(+)-Glucosamine] the “stimulation of BCEC proliferation” value [2] was “none of these hexosamines had significant stimulatory effects”.
